Data reported in patent US20120225061A1, “TETRASUBSTITUTED CYCLOHEXYL COMPOUNDS AS KINASE INHIBITORS” (priority 2011, published 2012).

Key:
[1] = tested on: KMS11 (human myeloma cell line); experiment: Cell proliferation assay (CellTiter-Glo) in KMS11 cells; assay type: cell-based; details: KMS-11, 72 h, Table 5, 3 days, read-out: KMS11-luc EC50
Description: KMS11 (human myeloma cell line), were cultured in IMDM supplemented with 10% FBS, sodium pyruvate and antibiotics. Cells were plated in the same medium at a density of 2000 cells per well into 96 well tissue culture plates, with outside wells vacant, on the day of assay.
Test compounds supplied in DMSO were diluted into DMSO at 500 times the desired final concentrations before dilution into culture media to 2 times final concentrations.
After 3 days plates were equilibrated to room temperature and equal volume of CellTiter-Glow Reagent (Promega) was added to the culture wells. The plates were agitated briefly and luminescent signal was measured with luminometer.

Pim1 kinase = Pim1 kinase (Homo sapiens, UniProt P11309); experiment: Pim1 AlphaScreen assay (high ATP)
Pim2 kinase = Pim2 kinase (Homo sapiens, UniProt Q9P1W9); experiment: Pim2 AlphaScreen assay (high ATP)
Pim3 kinase = Pim3 kinase (Homo sapiens, UniProt Q86V86); experiment: Pim3 AlphaScreen assay (high ATP)

Pim1 kinase, sequence (P11309 whole entry): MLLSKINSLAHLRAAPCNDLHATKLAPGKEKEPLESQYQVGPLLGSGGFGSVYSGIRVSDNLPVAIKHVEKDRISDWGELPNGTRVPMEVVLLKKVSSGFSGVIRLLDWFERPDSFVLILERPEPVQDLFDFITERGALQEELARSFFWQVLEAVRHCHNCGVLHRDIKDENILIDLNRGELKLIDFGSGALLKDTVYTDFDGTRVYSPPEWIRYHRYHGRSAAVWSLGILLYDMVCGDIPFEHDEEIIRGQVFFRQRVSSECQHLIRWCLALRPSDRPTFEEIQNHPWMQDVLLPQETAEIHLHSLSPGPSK
Pim2 kinase, sequence (Q9P1W9 whole entry): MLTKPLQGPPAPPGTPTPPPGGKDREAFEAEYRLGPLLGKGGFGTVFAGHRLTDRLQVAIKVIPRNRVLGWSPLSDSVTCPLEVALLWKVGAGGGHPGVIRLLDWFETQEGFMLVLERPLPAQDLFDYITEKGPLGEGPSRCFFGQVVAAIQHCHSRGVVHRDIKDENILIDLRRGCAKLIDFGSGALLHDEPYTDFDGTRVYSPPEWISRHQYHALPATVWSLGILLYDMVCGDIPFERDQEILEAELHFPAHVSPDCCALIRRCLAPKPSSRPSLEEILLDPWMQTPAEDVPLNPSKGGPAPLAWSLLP

| SMILES | EC50 [1] [nM] | IC50 (Pim1 kinase) [nM] | IC50 (Pim2 kinase) [nM] | IC50 (Pim3 kinase) [nM] |
| --- | --- | --- | --- | --- |
| CC1C[C@@H](c2ccncc2NC(=O)c2ccc(F)c(-c3c(F)cc(Oc4ccncc4)cc3F)n2)C[C@@H](O)[C@]1(C)O (stereo in doubt) [Example 116, 6-(2,6-difluoro-4-(pyridin-4-yloxy)phenyl)-N-(4-((1R,3R,4R,5S)-3,4-dihydroxy-4,5-dimethylcyclohexyl)pyridin-3-yl)-5-fluoropicolinamide] | > 10000 | 2.65 | 672 | 189 |
| C[C@H]1C[C@@H](c2ccncc2NC(=O)c2ccc(F)c(-c3c(F)cc(C4CCS(=O)(=O)CC4)cc3F)n2)C[C@@H](O)C1(C)O (stereo in doubt) [Example 120, N-(4-((1R,3R,4S,5S)-3,4-dihydroxy-4,5-dimethylcyclohexyl)pyridin-3-yl)-6-(4-(1,1-dioxidotetrahydro-2H-thiopyran-4-yl)-2,6-difluorophenyl)-5-fluoropicolinamide] | 723 | 0.26 | 48.7 | 31.5 |
| C[C@H]1C[C@@H](c2ccncc2NC(=O)c2ccc(F)c(-c3c(F)ccc(OCCO)c3F)n2)C[C@@H](N)[C@]1(C)O [Example 3, N-(4-((1R,3R,4R,5S)-3-amino-4-hydroxy-4,5-dimethylcyclohexyl)pyridin-3-yl)-6-(2,6-difluoro-3-(2-hydroxyethoxy)phenyl)-5-fluoropicolinamide] | 126 | 0.1 | 10.6 | 1.94 |
| COCCOc1ccc(F)c(-c2nc(C(=O)Nc3cnccc3[C@H]3C[C@@H](N)[C@](C)(O)[C@@H](C)C3)ccc2F)c1F [Example 6, N-(4-((1R,3R,4R,5S)-3-amino-4-hydroxy-4,5-dimethylcyclohexyl)pyridin-3-yl)-6-(2,6-difluoro-3-(2-methoxyethoxy)phenyl)-5-fluoropicolinamide] | 202 | 0.14 | 24.9 | 2.4 |
| C[C@H]1C[C@@H](c2ccncc2NC(=O)c2ccc(F)c(-c3c(F)cc(C4COC4)cc3F)n2)C[C@@H](N)[C@]1(C)O [Example 63, N-(4-((1R,3R,4R,5S)-3-amino-4-hydroxy-4,5-dimethylcyclohexyl)pyridin-3-yl)-6-(2,6-difluoro-4-(oxetan-3-yl)phenyl)-5-fluoropicolinamide] | 84 | – | 5.73 | – |
| C[C@H]1C[C@@H](c2ccncc2NC(=O)c2ccc(F)c(-c3c(F)cc(C4(O)CCOCC4)cc3F)n2)C[C@@H](O)[C@]1(C)O [Example 110, 6-(2,6-difluoro-4-(4-hydroxytetrahydro-2H-pyran-4-yl)phenyl)-N-(4-((1R,3R,4R,5S)-3,4-dihydroxy-4,5-dimethylcyclohexyl)pyridin-3-yl)-5-fluoropicolinamide] | 322 | – | – | – |
| CC(C)c1cc(F)c(-c2nc(C(=O)Nc3cnccc3[C@H]3C[C@@H](N)[C@](C)(O)[C@@H](C)C3)ccc2F)c(F)c1 [Example 117, N-(4-((1R,3R,4R,5S)-3-amino-4-hydroxy-4,5-dimethylcyclohexyl)pyridin-3-yl)-6-(2,6-difluoro-4-isopropylphenyl)-5-fluoropicolinamide] | 256 | 0.02 | 1.39 | – |
| C[C@H]1C[C@@H](c2ccncc2NC(=O)c2ccc(F)c(-c3c(F)cc(C4CCS(=O)(=O)CC4)cc3F)n2)C[C@@H](N)[C@]1(C)O [Example 119, N-(4-((1R,3R,4R,5S)-3-amino-4-hydroxy-4,5-dimethylcyclohexyl)pyridin-3-yl)-6-(4-(1,1-dioxidotetrahydro-2H-thiopyran-4-yl)-2,6-difluorophenyl)-5-fluoropicolinamide] | 578 | – | 1.53 | – |
| C[C@H]1C[C@@H](c2ccncc2NC(=O)c2nc(-c3cccc(OC(F)F)n3)ccc2N)C[C@@H](O)[C@]1(C)O [Example 123, 5-amino-6′-(difluoromethoxy)-N-(4-((1R,3R,4R,5S)-3,4-dihydroxy-4,5-dimethylcyclohexyl)pyridin-3-yl)-2,2′-bipyridine-6-carboxamide] | – | 35.2 | 20200 | 454 |
| C[C@H]1C[C@@H](c2ccncc2NC(=O)c2nc(-c3cccc(OCC(F)(F)F)n3)ccc2N)C[C@@H](O)[C@]1(C)O [Example 124, 5-amino-N-(4-((1R,3R,4R,5S)-3,4-dihydroxy-4,5-dimethylcyclohexyl)pyridin-3-yl)-6′-(2,2,2-trifluoroethoxy)-2,2′-bipyridine-6-carboxamide] | – | 21.7 | > 25000 | 736 |

Other lines, results leading:

| EC50 [1] [nM] | IC50 (Pim1 kinase) [nM] | IC50 (Pim2 kinase) [nM] | IC50 (Pim3 kinase) [nM] | SMILES |
| --- | --- | --- | --- | --- |
| 20 | 0.07 | 3.2 | – | C[C@H]1C[C@@H](c2ccncc2NC(=O)c2ccc(F)c(-c3c(F)cc(CCO)cc3F)n2)C[C@@H](N)[C@]1(C)O [Example 1, N-(4-((1R,3R,4R,5S)-3-amino-4-hydroxy-4,5-dimethylcyclohexyl)pyridin-3-yl)-6-(2,6-difluoro-4-(2-hydroxyethyl)phenyl)-5-fluoropicolinamide] |
| 59 | 0.05 | 2.68 | 1.33 | CCc1cc(F)c(-c2nc(C(=O)Nc3cnccc3[C@H]3C[C@@H](N)[C@](C)(O)[C@@H](C)C3)ccc2F)c(F)c1 [Example 2, N-(4-((1R,3R,4R,5S)-3-amino-4-hydroxy-4,5-dimethylcyclohexyl)pyridin-3-yl)-6-(4-ethyl-2,6-difluorophenyl)-5-fluoropicolinamide] |
| 34 | 0.09 | 4.33 | 2.43 | COCc1cc(F)c(-c2nc(C(=O)Nc3cnccc3[C@H]3C[C@@H](N)[C@](C)(O)[C@@H](C)C3)ccc2F)c(F)c1 [Example 4, N-(4-((1R,3R,4R,5S)-3-amino-4-hydroxy-4,5-dimethylcyclohexyl)pyridin-3-yl)-6-(2,6-difluoro-4-(methoxymethyl)phenyl)-5-fluoropicolinamide] |
| – | 0.13 | 8.1 | 1.43 | CC[C@]1(O)[C@H](N)C[C@H](c2ccncc2NC(=O)c2ccc(F)c(-c3c(F)cccc3F)n2)C[C@@H]1C [Example 11, N-(4-((1R,3R,4R,5S)-3-amino-4-ethyl-4-hydroxy-5-methylcyclohexyl)pyridin-3-yl)-6-(2,6-difluorophenyl)-5-fluoropicolinamide] |
| – | 26.2 | 1440 | 303 | CC[C@]1(O)[C@H](C)C[C@H](c2ccncc2NC(=O)c2ccc(F)c(-c3c(F)cccc3F)n2)C[C@@H]1N [Example 12, N-(4-((1S,3S,4S,5R)-3-amino-4-ethyl-4-hydroxy-5-methylcyclohexyl)pyridin-3-yl)-6-(2,6-difluorophenyl)-5-fluoropicolinamide] |
| – | 0.08 | 6 | 1.04 | COc1cc(F)c(-c2nc(C(=O)Nc3cnccc3[C@H]3C[C@@H](N)[C@](C)(O)[C@@H](C)C3)ccc2F)c(F)c1 [Example 15, N-(4-((1R,3R,4R,5S)-3-amino-4-hydroxy-4,5-dimethylcyclohexyl)pyridin-3-yl)-6-(2,6-difluoro-4-methoxyphenyl)-5-fluoropicolinamide] |
| – | 4.25 | 780 | 73 | COc1cc(F)c(-c2nc(C(=O)Nc3cnccc3[C@H]3C[C@@H](C)[C@](C)(O)[C@@H](N)C3)ccc2F)c(F)c1 [Example 16, N-(4-((1S,3S,4S,5R)-3-amino-4-hydroxy-4,5-dimethylcyclohexyl)pyridin-3-yl)-6-(2,6-difluoro-4-methoxyphenyl)-5-fluoropicolinamide] |
| – | 28.4 | 4650 | 646 | C[C@@H]1C[C@H](c2ccncc2NC(=O)c2nc(-c3c(F)cccc3F)ccc2N)C[C@H](O)[C@]1(O)CF [Example 17, 3-amino-6-(2,6-difluorophenyl)-N-(4-((1S,3S,4S,5R)-4-(fluoromethyl)-3,4-dihydroxy-5-methylcyclohexyl)pyridin-3-yl) picolinamide] |
| – | 0.58 | 28.6 | 10.1 | C[C@H]1C[C@@H](c2ccncc2NC(=O)c2nc(-c3c(F)cccc3F)c(F)cc2N)C[C@@H](O)[C@@]1(O)CF [Example 23, 3-amino-6-(2,6-difluorophenyl)-5-fluoro-N-(4-((1R,3R,4R,5S)-4-(fluoromethyl)-3,4-dihydroxy-5-methylcyclohexyl)pyridin-3-yl) picolinamide] |
| – | 22.1 | 4940 | 786 | C[C@@H]1C[C@H](c2ccncc2NC(=O)c2nc(-c3c(F)cccc3F)c(F)cc2N)C[C@H](O)[C@]1(O)CF [Example 24, 3-amino-6-(2,6-difluorophenyl)-5-fluoro-N-(4-((1S,3S,4S,5R)-4-(fluoromethyl)-3,4-dihydroxy-5-methylcyclohexyl)pyridin-3-yl) picolinamide] |
| 24 | – | 3.02 | – | C[C@H]1C[C@@H](c2ccncc2NC(=O)c2nc(-c3c(F)cccc3F)sc2N)C[C@@H](N)[C@]1(C)O [Example 68, 5-amino-N-(4-((1R,3R,4R,5S)-3-amino-4-hydroxy-4,5-dimethylcyclohexyl)pyridin-3-yl)-2-(2,6-difluorophenyl)thiazole-4-carboxamide] |
| 98 | – | 4 | – | CCOCc1cc(F)c(-c2nc(C(=O)Nc3cnccc3[C@H]3C[C@@H](N)[C@](C)(O)[C@@H](C)C3)ccc2F)c(F)c1 [Example 72, N-(4-((1R,3R,4R,5S)-3-amino-4-hydroxy-4,5-dimethylcyclohexyl)pyridin-3-yl)-6-(4-(ethoxymethyl)-2,6-difluorophenyl)-5-fluoropicolinamide] |
